{"source": "ChEMBL document CHEMBL1201862", "about": "“PubChem BioAssay data set” (2004)", "key": {"[1]": {"biological_target": "Polyadenylate-binding protein 1 (Homo sapiens, UniProt P11940)", "sequence (P11940 whole entry)": "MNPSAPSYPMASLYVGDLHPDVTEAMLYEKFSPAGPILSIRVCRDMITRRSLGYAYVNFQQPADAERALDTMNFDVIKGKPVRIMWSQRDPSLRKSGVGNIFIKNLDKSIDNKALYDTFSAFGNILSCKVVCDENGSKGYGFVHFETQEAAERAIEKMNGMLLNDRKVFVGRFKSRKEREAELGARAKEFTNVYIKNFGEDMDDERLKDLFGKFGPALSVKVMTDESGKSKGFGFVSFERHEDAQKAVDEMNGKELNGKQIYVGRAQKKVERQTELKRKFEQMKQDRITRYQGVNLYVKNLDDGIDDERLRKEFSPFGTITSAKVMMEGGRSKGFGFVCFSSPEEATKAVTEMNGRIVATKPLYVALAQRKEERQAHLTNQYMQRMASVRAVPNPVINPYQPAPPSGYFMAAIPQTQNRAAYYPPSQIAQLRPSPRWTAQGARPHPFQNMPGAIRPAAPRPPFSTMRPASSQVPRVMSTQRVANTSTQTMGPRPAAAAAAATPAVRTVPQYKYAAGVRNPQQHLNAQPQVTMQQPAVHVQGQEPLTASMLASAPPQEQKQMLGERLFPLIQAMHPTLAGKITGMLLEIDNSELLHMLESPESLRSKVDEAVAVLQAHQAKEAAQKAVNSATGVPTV", "assay": "PABP inhibition in translation initiation, SAR follow-up (AID 435018)", "format": "functional"}, "[2]": {"biological_target": "Eukaryotic translation initiation factor 4H (Homo sapiens, UniProt Q15056)", "assay": "eIF4H inhibition in translation initiation, SAR follow-up (AID 435011)", "format": "functional"}, "[3]": {"biological_target": "T1, Corticotropin-releasing factor receptor 2/Corticotropin-releasing factor-binding protein (Homo sapiens, UniProt P24387+Q13324)", "T1 sequence (Q13324 whole entry)": "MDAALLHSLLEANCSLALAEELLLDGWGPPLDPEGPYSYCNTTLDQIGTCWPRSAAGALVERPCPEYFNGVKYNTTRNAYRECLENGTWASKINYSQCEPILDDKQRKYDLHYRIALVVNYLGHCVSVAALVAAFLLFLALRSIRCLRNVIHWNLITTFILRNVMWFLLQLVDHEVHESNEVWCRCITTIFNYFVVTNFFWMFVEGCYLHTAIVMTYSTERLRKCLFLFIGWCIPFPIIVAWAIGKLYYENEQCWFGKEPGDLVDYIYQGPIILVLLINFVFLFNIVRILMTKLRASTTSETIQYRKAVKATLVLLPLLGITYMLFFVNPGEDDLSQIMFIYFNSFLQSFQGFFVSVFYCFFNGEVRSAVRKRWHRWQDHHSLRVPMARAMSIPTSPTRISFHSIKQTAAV", "T1 sequence (P24387 whole entry)": "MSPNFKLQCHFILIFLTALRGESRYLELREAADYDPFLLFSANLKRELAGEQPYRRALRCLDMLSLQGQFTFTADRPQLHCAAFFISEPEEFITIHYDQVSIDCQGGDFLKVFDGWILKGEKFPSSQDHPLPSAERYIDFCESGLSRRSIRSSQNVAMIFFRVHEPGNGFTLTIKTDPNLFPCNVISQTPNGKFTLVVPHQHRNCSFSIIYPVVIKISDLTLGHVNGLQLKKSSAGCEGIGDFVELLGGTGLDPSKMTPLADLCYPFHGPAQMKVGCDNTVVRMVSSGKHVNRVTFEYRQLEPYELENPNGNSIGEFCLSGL", "assay": "Dose Response confirmation of uHTS hits for small molecule antagonists of the CRF-binding protein and CRF-R2 receptor complex.", "format": "functional", "conditions": "read-out: IC50_Mean"}, "[4]": {"biological_target": "Intestinal-type alkaline phosphatase (Homo sapiens, UniProt P09923)", "sequence (P09923 whole entry)": "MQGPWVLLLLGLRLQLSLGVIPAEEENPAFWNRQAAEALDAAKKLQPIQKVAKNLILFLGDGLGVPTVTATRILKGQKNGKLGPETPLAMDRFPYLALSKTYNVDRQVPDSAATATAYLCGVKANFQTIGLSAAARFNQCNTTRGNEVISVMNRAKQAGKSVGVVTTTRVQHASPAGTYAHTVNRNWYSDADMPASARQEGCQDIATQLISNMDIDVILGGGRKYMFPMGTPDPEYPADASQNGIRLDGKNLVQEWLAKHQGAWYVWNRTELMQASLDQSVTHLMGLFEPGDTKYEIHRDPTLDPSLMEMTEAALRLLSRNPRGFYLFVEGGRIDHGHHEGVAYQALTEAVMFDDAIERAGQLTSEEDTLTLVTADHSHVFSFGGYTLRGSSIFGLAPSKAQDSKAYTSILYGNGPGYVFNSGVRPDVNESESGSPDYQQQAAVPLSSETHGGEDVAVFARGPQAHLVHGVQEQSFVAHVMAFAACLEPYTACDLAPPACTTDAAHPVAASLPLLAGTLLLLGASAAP", "assay": "Dose Response confirmation of uHTS hits from a small molecule inhibitors of human intestinal alkaline phosphatase via a luminescent assay. [Related pubchem assays (depositor defined):AID2544, AID2574]", "format": "functional"}, "[5]": {"biological_target": "T1, Corticotropin-releasing factor receptor 2/Corticotropin-releasing factor-binding protein", "assay": "activators of CRF receptor 2 with binding protein – uHTS hits, confirmation (AID 602473)", "format": "functional", "conditions": "read-out: EC50_Mean"}, "[6]": {"assay": "viability loss in BJeLR (HRASV12) cells, primary screen, Ras selective lethality project, cell-based, Alamar Blue, dry powder (AID 493045)", "format": "functional"}, "[7]": {"assay": "cytotoxicity in BJeH fibroblasts, dose response, counter-screen for Ras selective lethality project, BJeH cells, dry powder (AID 493054)", "format": "functional, cell-based"}, "[8]": {"assay": "viability loss in HRASV12 DRD fibroblasts, dose response, cell-based, DRD BJ fibroblasts, dry powder (AID 493049)", "format": "functional"}, "[9]": {"assay": "cytotoxicity in BJeHLT fibroblasts, dose response, counter-screen for Ras selective lethality project, BJeHLT cells, dry powder (AID 493052)", "format": "functional, cell-based", "conditions": "Homo sapiens"}, "[10]": {"assay": "inhibition of K1F phage lysis, E. coli UTI89, bacterial capsule biogenesis inhibitors, alamar blue (AID 488966)", "format": "functional"}, "[11]": {"assay": "Luminescence Cell-Based Dose Confirmation HTS to Identify Inhibitors of Platelet Dense Granule Release. [Related pubchem assays: 1663 (Primary HTS), 1678 (Summary of Project)]", "format": "functional"}, "Saccharomyces cerevisiae": {"system": "Saccharomyces cerevisiae", "assay": "NALP1 inhibitor project selectivity study, Caspase-1/ASC signal blockade IC50 in S. cerevisiae (AID 488863)", "format": "functional, organism-based"}, "[12]": {"biological_target": "NACHT, LRR and PYD domains-containing protein 1 (Homo sapiens, UniProt Q9C000)", "sequence (Q9C000 1-1212 limits assumed)": "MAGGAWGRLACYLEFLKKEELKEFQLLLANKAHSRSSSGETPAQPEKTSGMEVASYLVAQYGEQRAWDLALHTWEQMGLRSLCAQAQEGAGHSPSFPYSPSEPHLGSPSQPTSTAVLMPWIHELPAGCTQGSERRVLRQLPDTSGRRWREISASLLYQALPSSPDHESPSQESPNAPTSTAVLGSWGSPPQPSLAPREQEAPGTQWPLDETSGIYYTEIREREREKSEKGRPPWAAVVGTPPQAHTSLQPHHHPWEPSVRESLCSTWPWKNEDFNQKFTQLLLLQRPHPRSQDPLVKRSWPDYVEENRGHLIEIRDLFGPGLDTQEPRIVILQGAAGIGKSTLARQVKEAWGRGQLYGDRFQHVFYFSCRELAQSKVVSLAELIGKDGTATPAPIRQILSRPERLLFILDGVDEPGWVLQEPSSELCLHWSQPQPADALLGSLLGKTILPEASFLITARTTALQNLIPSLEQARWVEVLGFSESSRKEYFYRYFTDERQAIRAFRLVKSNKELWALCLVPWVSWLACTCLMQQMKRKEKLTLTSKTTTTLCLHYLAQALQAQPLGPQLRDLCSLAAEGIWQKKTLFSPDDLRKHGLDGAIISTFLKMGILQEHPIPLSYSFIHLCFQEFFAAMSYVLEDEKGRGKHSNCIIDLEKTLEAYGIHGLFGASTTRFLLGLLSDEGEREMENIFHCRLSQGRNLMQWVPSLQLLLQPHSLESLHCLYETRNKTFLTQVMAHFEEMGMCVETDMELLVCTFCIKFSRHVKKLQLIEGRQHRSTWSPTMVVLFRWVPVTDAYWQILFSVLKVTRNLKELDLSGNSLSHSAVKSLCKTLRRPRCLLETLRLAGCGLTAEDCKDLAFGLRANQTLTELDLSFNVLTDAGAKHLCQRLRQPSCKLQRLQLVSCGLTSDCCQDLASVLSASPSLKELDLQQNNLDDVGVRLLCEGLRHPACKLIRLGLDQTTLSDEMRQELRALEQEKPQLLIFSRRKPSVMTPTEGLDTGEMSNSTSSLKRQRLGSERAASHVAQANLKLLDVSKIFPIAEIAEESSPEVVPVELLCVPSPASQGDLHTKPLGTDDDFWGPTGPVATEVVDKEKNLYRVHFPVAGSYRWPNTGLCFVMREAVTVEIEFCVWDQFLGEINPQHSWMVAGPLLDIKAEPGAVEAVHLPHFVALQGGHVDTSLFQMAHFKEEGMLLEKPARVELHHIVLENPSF", "sequence (Q9C000 1213-1473 limits assumed)": "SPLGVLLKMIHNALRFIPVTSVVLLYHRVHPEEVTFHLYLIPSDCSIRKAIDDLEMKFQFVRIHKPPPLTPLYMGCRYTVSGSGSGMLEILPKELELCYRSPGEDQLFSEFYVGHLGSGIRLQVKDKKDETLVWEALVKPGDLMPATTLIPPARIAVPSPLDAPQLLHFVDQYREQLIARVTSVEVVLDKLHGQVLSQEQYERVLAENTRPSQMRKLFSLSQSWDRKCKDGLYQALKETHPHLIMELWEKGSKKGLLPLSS", "assay": "NALP1 inhibitors in yeast, dose response, luminescent (AID 488860)", "format": "functional"}, "[13]": {"biological_target": "Luciferin 4-monooxygenase (Photinus pyralis, UniProt P08659)", "sequence (P08659 whole entry)": "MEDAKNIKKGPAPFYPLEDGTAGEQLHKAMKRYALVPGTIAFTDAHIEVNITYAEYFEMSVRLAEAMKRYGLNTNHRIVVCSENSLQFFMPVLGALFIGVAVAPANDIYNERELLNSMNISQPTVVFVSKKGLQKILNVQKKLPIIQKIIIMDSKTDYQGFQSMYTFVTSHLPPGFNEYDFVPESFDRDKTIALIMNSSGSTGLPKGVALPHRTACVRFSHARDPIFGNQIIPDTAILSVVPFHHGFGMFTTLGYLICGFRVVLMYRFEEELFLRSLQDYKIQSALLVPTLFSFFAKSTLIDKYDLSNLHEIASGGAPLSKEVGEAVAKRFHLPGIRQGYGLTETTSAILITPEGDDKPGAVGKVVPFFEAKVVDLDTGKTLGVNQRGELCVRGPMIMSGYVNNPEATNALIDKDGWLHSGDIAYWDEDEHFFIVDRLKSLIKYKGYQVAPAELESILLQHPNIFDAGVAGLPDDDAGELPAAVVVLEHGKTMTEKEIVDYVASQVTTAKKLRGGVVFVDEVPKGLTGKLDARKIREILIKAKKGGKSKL", "assay": "firefly luciferase enzyme inhibitors, dose response, biochemical, luminescence (AID 1891)"}, "[14]": {"biological_target": "T2, Neuropeptide Y receptor type 2 (Homo sapiens, UniProt P49146)", "T2 sequence (P49146 whole entry)": "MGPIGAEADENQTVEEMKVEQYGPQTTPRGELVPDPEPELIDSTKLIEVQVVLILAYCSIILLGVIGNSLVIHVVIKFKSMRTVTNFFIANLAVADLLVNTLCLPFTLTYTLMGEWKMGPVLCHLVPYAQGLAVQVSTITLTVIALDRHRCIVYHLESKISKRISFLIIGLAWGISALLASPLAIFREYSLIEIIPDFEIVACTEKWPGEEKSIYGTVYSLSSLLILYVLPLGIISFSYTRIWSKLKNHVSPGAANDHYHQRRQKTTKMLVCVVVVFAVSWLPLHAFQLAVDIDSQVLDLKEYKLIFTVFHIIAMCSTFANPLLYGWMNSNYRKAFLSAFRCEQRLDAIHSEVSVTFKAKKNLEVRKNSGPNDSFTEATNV", "format": "functional, cell-based"}, "[15]": {"biological_target": "T3, Neuropeptide Y receptor type 1 (Homo sapiens, UniProt P25929)", "T3 sequence (P25929 whole entry)": "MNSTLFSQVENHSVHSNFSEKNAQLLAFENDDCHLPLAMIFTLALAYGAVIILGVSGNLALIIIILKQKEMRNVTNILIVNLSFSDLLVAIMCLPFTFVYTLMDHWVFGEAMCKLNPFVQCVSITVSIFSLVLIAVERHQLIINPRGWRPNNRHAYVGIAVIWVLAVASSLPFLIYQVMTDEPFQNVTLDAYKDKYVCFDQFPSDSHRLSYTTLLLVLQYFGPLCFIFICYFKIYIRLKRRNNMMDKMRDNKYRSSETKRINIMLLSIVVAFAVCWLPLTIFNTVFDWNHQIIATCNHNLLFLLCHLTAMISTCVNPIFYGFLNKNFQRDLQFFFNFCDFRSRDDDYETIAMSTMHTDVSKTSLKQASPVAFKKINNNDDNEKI", "format": "functional"}}, "note": "Calls of active or inactive are those of the source.", "data": [{"smiles": "COc1ccccc1N=C1SC(C(=O)Nc2ccc(F)cc2)CC(=O)N1C", "note": "(stereo unspecified)", "values": [{"measurement": "IC50", "setting": "[1]", "result": "> 100 µM (inactive)"}, {"measurement": "IC50", "setting": "[2]", "result": "> 100 µM (inactive)"}]}, {"smiles": "Cc1ccccc1CNC(=O)c1ccccc1N", "values": [{"measurement": "IC50", "setting": "[3]", "result": "> 47.1 µM (inactive)"}, {"measurement": "IC50", "setting": "[4]", "result": "> 100 µM (inactive)"}, {"measurement": "EC50", "setting": "[5]", "result": "> 53 µM (inactive)"}]}, {"smiles": "COc1ccc(N(C(=O)CCl)C(C(=O)NCc2ccccc2)c2cccs2)cc1Cl", "note": "(stereo unspecified)", "values": [{"measurement": "AC50", "setting": "[6]", "result": "0.075 µM (active)"}, {"measurement": "AC50", "setting": "[7]", "result": "0.336 µM (active)"}, {"measurement": "AC50", "setting": "[8]", "result": "0.098 µM (active)"}, {"measurement": "AC50", "setting": "[9]", "result": "0.179 µM (active)"}]}, {"smiles": "CC/C(=C(/c1ccccc1)c1ccc(OCC[N+](C)(C)C)cc1)c1ccccc1", "values": [{"measurement": "IC50", "setting": "[10]", "result": "> 150 µM (active)"}]}, {"smiles": "COc1cc(/C=N/n2cnnc2)ccc1OCc1ccc(C)cc1", "values": [{"measurement": "EC50", "setting": "[11]", "result": "20.8 µM (active)"}, {"measurement": "IC50", "setting": "Saccharomyces cerevisiae", "result": "> 100 µM (inactive)"}, {"measurement": "IC50", "setting": "[12]", "result": "> 100 µM (inactive)"}, {"measurement": "EC50", "setting": "[13]", "result": "> 112 µM (not active)"}, {"measurement": "IC50", "setting": "[14]", "result": "4.18 µM (active)"}, {"measurement": "IC50", "setting": "[15]", "result": "7.08 µM (active)"}]}]}
